Data from article PMC10451632, “Site Mutation Improves the Expression and Antimicrobial Properties of Fungal Defense” (Antibiotics, 2023).
In brackets after ≈: the same amount, converted by molar mass. Read-outs that look alike come from different tables or passages of the source. Bridge positions count the residues as written; N and C are the ends. Peptide text beside a SMILES is read from it.

Legend:
S. aureus ATCC 43300 [1] = test: Post antibiotic effect (PAE); format: cell-based, Staphylococcus aureus
Source text: The post-antibiotic effect reflects the inhibitory effect on the growth of pathogenic bacteria after short contact with drugs, which is related to the strength of the bactericidal activity of drugs. The test method of the PAE of PN7 against S. aureus ATCC 43300 refers to the descriptions in previous studies.

mouse erythrocytes = test: Hemolytic activity; format: cell-based; details: 128 μg/mL; fresh mouse red blood cells; 0.1% Triton X-100 = 100% hemolysis; mean of three biological replicates
Procedure: The hemolytic activity of PN7 was evaluated based on the amount of the released hemoglobin from erythrocyte suspensions of healthy mouse blood. Erythrocyte suspensions treated with 0.1% Triton X-100 and saline were used as 100% hemolysis and negative control, respectively.

S. aureus ATCC 43300 [2] = test: SEM morphological observation; format: cell-based, Staphylococcus aureus; details: 2× MIC, 30 min
Procedure: To further characterize the bactericidal effects of peptide, SEM was used to visualize the morphological changes. S. aureus ATCC 43300 cells were treated with PN7. Cells for SEM were processed as described previously.

S. aureus ATCC 25923 = format: cell-based, Staphylococcus aureus
Procedure: (§1) The experimental operation of the expression of the Plectasin variant in P. pastoris in well plates, shaking flasks, and 5 L level fermentation was performed as referenced in previous studies. Candidates were identified through three different levels of screening. Firstly, a large number of transformants were screened through well plates to induce expression and determined by the inhibition zone assay (against S. aureus ATCC 43300). Secondly, the transformants with obvious inhibition zones were sequenced to obtain protein sequence information, then induced expression at the shake level. The supernatant was collected and purified to obtain the target protein; the anti-Staphylococcus aureus activity of the protein was detected by a MIC assay. Finally, the codons of candidate sequences were optimized, the expression vector was reconstructed, the optimal transformers were obtained, and the high-density cultivation was performed in a 5 L fermenter. The final agent was determined by high protein yield and good activity (Figure 2).
(§2) The MIC value of PN7 against bacteria was determined by the microtiter broth dilution method. Briefly, bacteria grown to the exponential phase were diluted into MHB; subsequently, 90 μL of bacterial suspension (10^5 CFUs/mL) was mixed with 10 μL of different concentrations of PN7 in a sterilized 96-well microtiter plate (Nunc). MIC values were recorded after incubation for 16–18 h at 37 °C based on the lowest concentrations of peptides in which no visible bacterial growth was observed.

S. aureus CVCC 546 = format: cell-based, Staphylococcus aureus
Procedure: as §1, §2

S. aureus E48 = format: cell-based, Staphylococcus aureus
Procedure: as §1, §2

P. aeruginosa CICC 21630 = test: MIC, microtiter broth dilution; format: cell-based, Pseudomonas aeruginosa; details: MHB, 10^5 CFUs/mL, 16–18 h at 37 °C
Procedure: as §2

[3] = Stability in simulated gastric fluid, MIC read-out; format: in vitro ADME
Procedure: The stability of peptide PN7 in SGF, SIF, and 25% or 50% mouse serum was carried out as previously described. A final concentration of 1280 μg/mL PN7 was prepared and incubated at 37 °C and then diluted twice. The MIC was determined.

S. aureus ATCC 43300 [4] = test: Membrane permeability, PI staining by FACS; format: cell-based, Staphylococcus aureus; details: 2× MIC, 10^8 CFU/mL, 37 °C
Procedure: Figure 8 In vitro antimicrobial analysis of PN7. (A): Time-kill curve of PN7, Plectasin, and vancomycin against S. aureus ATCC. All experiments were performed in triplicate. (B): The PAE of 1×, 2× and 4× MIC of PN7 and vancomycin against S. aureus ATCC 43300 (the MIC values of PN7 and vancomycin against S. aureus ATCC 43300 were 8 μg/mL and 1μg/mL, respectively). All experiments were performed in triplicate. (C): The morphological influence of PN7 on S. aureus ATCC 43300 was observed by SEM. (D,E): The effects of PN7 (D) and Plectasin (E)) on membrane permeability were analyzed by FACS. The logarithmic phase S. aureus ATCC 43300 cells (10^8 CFU/mL) were incubated with or without 2× MIC peptide solutions at 37 °C at different times. All experiments were performed in triplicate. Ple stands for the Plectasin treatment group, Van stands for the vancomycin treatment group, and CK stands for the untreated group. TEXT PRINTED IN THE PICTURE: (D) PN7: 34.4% (2×; 90min); 31.2% (2×; 75min); 30.4% (2×; 60min); 19.2% (2×; 45min); 16.7% (2×; 30min); 1.94% (2×; 15min) | (E) Ple: 32.0% (2×; 90min); 27.4% (2×; 75min); 25.2% (2×; 60min); 12.8% (2×; 45min); 12.0% (2×; 30min); 2.11% (2×; 15min) DOUBTS OF THE COPYIST ABOUT THIS PICTURE: Panels D and E: the picture prints no measure for the percentages, only labels such as "2×PN7-90min: 34.4%" / Panels D and E: "CK: 0.54%" is the untreated control, not a substance, and was left out
The fluorescent dye propidium iodide (PI; Solarbio, Beijing, China) was used to detect the effect of PN7 on the membrane permeability of Staphylococcus aureus. The test method refers to the descriptions in previous studies.

[5] = microtiter broth dilution, MHB, 10^5 CFUs/mL, 16–18 h at 37 °C

For CC[C@H](C)[C@@H]1NC(=O)[C@H](CO)NC(=O)[C@H](CCCCN)NC(=O)[C@@H]2CSSC[C@@H](C(=O)N[C@@H](Cc3ccc(O)cc3)C(=O)O)NC(=O)[C@H](CCCCN)NC(=O)[C@@H]3CSSC[C@H](NC(=O)[C@H](CCCNC(=N)N)NC(=O)CNC(=O)[C@H](CC(=O)O)NC(=O)[C@H](CC(=O)O)NC(=O)[C@H](CCC(=O)O)NC(=O)[C@H](Cc4ccc(O)cc4)NC(=O)[C@H](Cc4c[nH]c5ccccc45)NC(=O)[C@@H]4CCCN4C(=O)CNC(=O)[C@H](CC(N)=O)NC(=O)[C@@H](NC(=O)CNC(=O)[C@H](Cc4ccccc4)NC(=O)CN)CSSC[C@H](NC(=O)[C@H](Cc4ccc(O)cc4)NC(=O)CNC(=O)CNC(=O)[C@H](CCCCN)NC(=O)[C@H](Cc4ccc(O)cc4)NC(=O)CNC(=O)[C@H](CCCCN)NC1=O)C(=O)N[C@@H](C)C(=O)N[C@@H](CCCCN)C(=O)NCC(=O)NCC(=O)N[C@@H](Cc1ccccc1)C(=O)N[C@@H](C(C)C)C(=O)N3)C(=O)N[C@@H](Cc1c[nH]cn1)C(=O)N[C@@H](CC(N)=O)C(=O)N[C@@H](Cc1c[nH]cn1)C(=O)N2 [PN7] (H-GFGCNGPWYEDDGRCHNHCKSIKGYKGGYCAKGGFVCKCY-OH; disulfide 4-30, 15-37, 19-39 (inferred); N-terminus and C-terminus assumed), the “gap of PAE, PN7 versus vancomycin” value (S. aureus ATCC 43300 [1]; 1× MIC) was 12 times, the “gap of PAE, PN7 versus vancomycin” value (S. aureus ATCC 43300 [1]; 2× MIC) was 3.648 times and the “gap of PAE, PN7 versus vancomycin” value (S. aureus ATCC 43300 [1]; 4× MIC) was 3.513 times. For the same compound, the hemolysis (mouse erythrocytes) was 0.19%, the “cell morphology by SEM” value (S. aureus ATCC 43300 [2]) was “shrinkage only appears in the cell surface” and the MIC (S. aureus ATCC 25923; S. aureus 25923, purified protein induced by shaking flasks) was 16 µg/mL (≈ 3.63 µM). The MIC (S. aureus ATCC 25923; [5]) was 16 µg/mL (≈ 3.63 µM), the MIC (S. aureus CVCC 546; S. aureus 546, purified protein induced by shaking flasks) was 4 µg/mL (≈ 0.908 µM) and the MIC (S. aureus CVCC 546; [5]) was 1 µg/mL (≈ 0.227 µM). The MIC (S. aureus E48; S. aureus E48, purified protein induced by shaking flasks) was 4 µg/mL (≈ 0.908 µM), the MIC (S. aureus E48; [5]) was 1 µg/mL (≈ 0.227 µM) and the MIC (P. aeruginosa CICC 21630) was >128 µg/mL. For the same compound, the “activity after incubation with simulated gastric juice (SGF)” value ([3]; 1280 μg/mL PN7, 37 °C, then two-fold dilution, triplicate) was “conserved full activity”, the resistance to pepsin ([3]; Figure 7E) was “resistant to pepsin” and the “PI-staining percentage of cells” value (S. aureus ATCC 43300 [4]; 30 min) was 16.7%. The “PI-staining percentage of cells” value (S. aureus ATCC 43300 [4]; 60 min) was 30.4% and the “PI-staining percentage of cells” value (S. aureus ATCC 43300 [4]; 90 min) was 34.4%.
